Reference: BindingDB's records for doi:10.7270/Q2HT2MVZ (Burnham Center For Chemical Genomics, 2011)

Molecular target: T1, Sentrin-specific protease 8 (Homo sapiens, UniProt Q96LD8)
T1 sequence (Q96LD8 whole entry): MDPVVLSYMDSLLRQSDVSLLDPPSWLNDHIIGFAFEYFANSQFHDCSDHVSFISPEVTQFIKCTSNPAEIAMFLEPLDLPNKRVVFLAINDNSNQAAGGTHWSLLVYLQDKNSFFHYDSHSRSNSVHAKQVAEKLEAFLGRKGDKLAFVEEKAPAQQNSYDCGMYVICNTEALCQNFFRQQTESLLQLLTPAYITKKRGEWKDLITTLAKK
Test: inhibition of sentrin protease 8 – biochemical, luminescence, set 2, SAR follow-up (AID 588601)

CCOC1=CC(=CC(C#N)c2nc(-c3ccc(C)cc3)no2)C=C(Cl)C1=O (stereo unspecified)
IC50: > 99 µM
